Test results taken from patent US20080234381A1, “Novel Trifluoromethoxy-Substituted Aryl Anilides” (Novo Nordisk A/S, priority 2005, published 2008).

Question: Which melting point does the source give for `N#Cc1ccc(NC(=O)c2ccc3ccccc3c2O)c(OC(F)(F)F)c1` [Example 1, 1-Hydroxy-naphthalene-2-carboxylic acid(4-cyano-2-trifluoromethoxy-phenyl)-amide] here?
Answer: The melting point was 178 °C.

Question: With `N#Cc1ccc(NC(=O)c2c(O)ccc3ccccc23)c(OC(F)(F)F)c1` [Example 2, 2-Hydroxy-naphthalene-1-carboxylic acid(4-cyano-2-trifluoromethoxy-phenyl)-amide] as the molecule, how does the melting point read?
Answer: Its melting point is 169 °C.

Question: For `N#Cc1ccc(NC(=O)c2cc3ccccc3cc2O)c(OC(F)(F)F)c1` [Example 3, 3-Hydroxy-naphthalene-2-carboxylic acid(4-cyano-2-trifluoromethoxy-phenyl)-amide], which melting point is on record?
Answer: The melting point was 248 °C.
